± gives the standard deviation of the averaged measurements.
How the values were obtained:
U-2 OS [1] = test: intracellular GSH:GSSG ratio (calculated); higher = more reduced glutathione pool; details: 24 h
Method: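 Intracellular glutathione in U-2 OS cells after 24 h compound treatment at 5, 10 and 20 uM (some at 40 and 80 uM). Total glutathione and GSSG were measured with the GSH/GSSG-Glo kit, and the GSH:GSSG ratio was calculated. Mean of five technical replicate plates.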

U-2 OS [2] = test: cell viability (CellTiter-Glo) relative to DMSO (% of control); higher = more viable; details: 24 h
Method: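 Cell viability of U-2 OS cells by CellTiter-Glo after 24 h compound treatment at 5, 10 and 20 uM (some at 40 and 80 uM), measured in parallel with the glutathione assay, as percent of DMSO control. Five technical replicate plates, averaged.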

U-2 OS [3] = test: total intracellular glutathione (GSH + GSSG) relative to DMSO (% of control); higher = more glutathione; details: 24 h
Method: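 Total intracellular glutathione (GSH + GSSG) in U-2 OS cells by GSH/GSSG-Glo after 24 h compound treatment at 5, 10 and 20 uM (some at 40 and 80 uM), as percent of DMSO control. Five technical replicate plates, averaged.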

U-2 OS [4] = test: cell painting activity score (Mahalanobis distance from DMSO wells); higher = stronger morphological phenotype; details: 24 h
How it was run: (§1)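 Cell painting used U-2 OS cells at about 1,500 per well in 384-well plates, treated by pin tool for 24 h at 37 °C, usually at six 2-fold concentrations from 20 μM to 625 nM. Cells were stained with MitoTracker, concanavalin A, phalloidin, wheat germ agglutinin, Hoechst and SYTO 14 and imaged on an Opera Phenix. Features were extracted with CellProfiler and normalized to DMSO cells on the same plate. The activity score is the Mahalanobis distance from DMSO wells; cell count is relative to DMSO wells. Values are means of four replicate plates.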

U-2 OS [5] = test: relative cell count vs DMSO (cell painting) (fraction of DMSO control); higher = more cells remaining (less cytotoxic); details: 24 h
How it was run: as §1

U-2 OS [6] = test: AUC of culture confluence over time (live-cell imaging) (AUC (confluence % x time)); higher = more confluent culture (less growth inhibition)
How it was run: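 Live-cell imaging tracked confluence of U-2 OS cells grown in F-12K medium plus 10% FBS. After seeding at 750 cells per well in 384-well plates, cells received compounds by pin tool 24 h later, mostly at 20, 10 and 5 μM, with 0.2% DMSO. Plates stayed at 37 °C and were imaged every 4 h for up to 60 h. Each value is the area under the confluence-versus-time curve.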

SMILES	intracellular GSH:GSSG ratio (U-2 OS [1]; 5 µM)	intracellular GSH:GSSG ratio (U-2 OS [1]; 10 µM)	intracellular GSH:GSSG ratio (U-2 OS [1]; 20 µM)	cell viability (U-2 OS [2]; 5 µM)	cell viability (U-2 OS [2]; 10 µM)	cell viability (U-2 OS [2]; 20 µM)	total intracellular glutathione (U-2 OS [3]; 5 µM)	total intracellular glutathione (U-2 OS [3]; 10 µM)	total intracellular glutathione (U-2 OS [3]; 20 µM)	cell painting activity score (U-2 OS [4]; 0.625 µM)	cell painting activity score (U-2 OS [4]; 1.25 µM)	cell painting activity score (U-2 OS [4]; 2.5 µM)	cell painting activity score (U-2 OS [4]; 5 µM)	cell painting activity score (U-2 OS [4]; 10 µM)	cell painting activity score (U-2 OS [4]; 20 µM)	relative cell count (U-2 OS [5]; 0.625 µM)	relative cell count (U-2 OS [5]; 1.25 µM)	relative cell count (U-2 OS [5]; 2.5 µM)	relative cell count (U-2 OS [5]; 5 µM)	relative cell count (U-2 OS [5]; 10 µM)	relative cell count (U-2 OS [5]; 20 µM)	AUC of culture confluence over time (U-2 OS [6]; 5 µM)	AUC of culture confluence over time (U-2 OS [6]; 10 µM)	AUC of culture confluence over time (U-2 OS [6]; 20 µM)	AUC of culture confluence over time (U-2 OS [6]; 0.625 µM)	AUC of culture confluence over time (U-2 OS [6]; 1.25 µM)	AUC of culture confluence over time (U-2 OS [6]; 2.5 µM)	intracellular GSH:GSSG ratio (U-2 OS [1]; 40 µM)	intracellular GSH:GSSG ratio (U-2 OS [1]; 80 µM)	cell viability (U-2 OS [2]; 40 µM)	cell viability (U-2 OS [2]; 80 µM)	total intracellular glutathione (U-2 OS [3]; 40 µM)	total intracellular glutathione (U-2 OS [3]; 80 µM)
O=S1(=O)CCc2ccccc21	26	25.7	22.4	101 ± 3.4	101 ± 5.8	102 ± 2.9	104 ± 1.9	109 ± 7.8	106 ± 7.5	4.91	3.74	4.94	4.01	4.61	6.81	1.03	0.988	1.02	1.05	1.02	1.02	51	51.8	54.2	–	–	–	–	–	–	–	–	–
CCC(=O)N1CCN(c2ccc(-n3c(=O)ccc4cnc5ccc(-c6cnc7ccccc7c6)cc5c43)cc2C(F)(F)F)CC1	16.1	15	13.4	66.4 ± 3.2	66.8 ± 3.4	61.4 ± 4	58.8 ± 4.2	58.6 ± 4.8	64 ± 3.3	12.8	12.6	12.4	13.4	13.2	14.2	0.752	0.716	0.68	0.714	0.683	0.656	26.9	27.2	26.1	–	–	–	–	–	–	–	–	–
COC(=O)Nc1nc2ccc(C(=O)c3cccs3)cc2[nH]1	3.33	2.36	2.95	54.8 ± 7	47.5 ± 5.7	52.3 ± 9.2	53.1 ± 6.4	50.2 ± 4.2	51.4 ± 6	19.6 ± 2.7	18.4 ± 2.2	21.5 ± 2.2	22.3 ± 1.8	22.7 ± 1.8	23.1 ± 1.4	0.272 ± 0.056	0.265 ± 0.032	0.243 ± 0.033	0.232 ± 0.034	0.222 ± 0.035	0.211 ± 0.036	20.2	18.8	24.1	20.9	19.1	21.5	–	–	–	–	–	–
CC(=O)OC1C(c2ccc(=O)oc2)C2(C)CCC3C(CCC4CC(O)CCC43C)C23OC13 (configuration not stated)	4.48	3.04	2.21	21.4 ± 1.7	21.5 ± 2.2	23.7 ± 3.1	13.9 ± 1.2	12.1 ± 1.1	11.5 ± 0.76	17.1	16.2	18	19	18.5	18.8	0.327	0.27	0.264	0.242	0.229	0.224	17.6	19.4	17.6	–	–	–	–	–	–	–	–	–
O=C1CCC(=O)N1c1ccc(O)cc1	43	32.2	56.3	107 ± 6.3	106 ± 7.5	105 ± 5.4	105 ± 13	87.4 ± 4.5	102 ± 5.2	4.12	3.43	3.81	3.52	4.26	2.95	1.02	0.976	0.966	0.904	1.03	1.04	48.1	42.4	43.3	–	–	–	–	–	–	–	–	–
COc1ccc(/C(Cl)=C(\C=O)c2ccc(OC)cc2)cc1	20.2	16.5	15.7	101 ± 3.7	102 ± 3.2	99.8 ± 6.2	125 ± 6.9	125 ± 4.8	111 ± 2.4	6.88	4.52	5.61	10.1	11.3	12	1	0.996	1.01	0.987	0.98	0.996	45.3	38.1	35.7	–	–	–	7.85	9.31	77.1 ± 5	69.9 ± 4.5	76.7 ± 2.6	79.8 ± 4.3
O=S1(=O)C=C(Sc2nn(-c3ccccc3)c(=S)s2)c2ccccc21	11.7	7.07	2.96	38.8 ± 8.9	30.5 ± 2.7	36.6 ± 8.1	65 ± 9.1	43.8 ± 9	29.2 ± 4.9	11.4	11.7	19.6	17.8	20.4	18.2	0.875	0.647	0.35	0.223	0.247	0.259	17.7	15.9	16.3	–	–	–	–	–	–	–	–	–

— the supplement of paper PMC10011410
